Laboratory results reported in US7714014B2, “Targeting GLI proteins in human cancer by small molecules” (The Regents of the University of California, priority 2005, dated 2010).

Assays:
NSCLC A549 tumor = test: Mouse Xenograft Model (NSCLC A549); format: in vivo; conditions: 15 mg/kg daily 2×6 days then 30 mg/kg daily 1×6 days i.p.; 43 days after inoculation
Description: The small molecule compound FN1-8 was tested in vivo in the mouse xenograft model bearing human cancer cells. Briefly, female athymic nude mice strain NCRNU-M (5-10 weeks old, 20-25 grams in weight; Taconic, Germantown, N.Y.) was maintained in pathogen-free conditions. Three human cancer cell lines: NSCLC H460, melanoma LOX, (both showing Gli3 activation), and colon cancer HT29 (no Gli3 activation, as a negative control), were used. Ten mice were used in each group and injected s.c. with 3×10^6 cancer cells in the dorsal area in a volume of 100 μl. After inoculation, human cancer cells were allowed to grow in mice for 7 days to become visible tumor nodules. Animals were then injected with small molecule compound FN1-8 at a dose of 50 mg/kg body weight (1 mg/mouse per day). DMSO alone was used as control. The compounds and controls were adjusted in 40 ul volume for i.p. injection in the abdomens of the mice. One mouse was sacrificed within 1 hour after the compound injection (after 6 injections) and its blood was collected. […] Tumor size was measured every three days, and tumor volumes were calculated using width (x) and length (y) (x^2y/2, where x<y). […]
In vivo efficacy study ofFN1-8 in Mouse Xenograft Model (NSCLC A549) was also examined. […] 43 days after the initial tumor inoculation, tumors were dissected from the mice of each group and their weights were measured using a scale. […]

HT29 (colon cancer) = test: Apoptosis analysis (Annexin V FITC, flow cytometry); format: cell-based, human; conditions: for % of apoptotic cells: about 3 days
Description: Apoptosis was analyzed by using an Annexin V FITC Apoptosis Detection Kit (Biosource, Camarillo, Calif.), according to the manufacturer's protocol. After treatment with different small molecule compounds at various concentrations for about 3 days, cells were harvested by trypsinization, stained and immediately analyzed by flow cytometry (FACScan; Decton Dickinson, Franklin Lake, N.J.). Early apoptotic cells with exposed phosphatidylserine but intact cell membranes will bind to Annexin V-FITC, but not propidium iodide (PI). Cells in necrotic or late apoptotic stages will be labeled with both Annexin V-FITC and PI. “% apoptotic cells” or “% apoptosis” refers to the combined early and late apoptotic cells.
Flow cytometry was used to examine apoptosis in colon cancer cell line HT29 after treatment of cells with small molecule compounds FN1-5 and FN1-8. While FN1-5 induced apoptosis in HT29 cells (at 50 μM 35% apoptotic cells were observed; Table 2), no apoptosis was observed after treatment with FN1-8 (Table 3).

[1] = test system: SW480 cells transfected with empty pCDNA3 vector or Gli2 cDNA expression construct; test: GLI2 over-expression rescue experiment; format: cell-based, human; conditions: 5 days
Description: For transient transfection experiments, cells (2×10^5) were plated in six-well plates using growth medium without antibiotics 24 hrs before transfection. Lipofectamine™ 2000 (Invitrogen Life Technologies; Carlsbad, Calif.) was used to mediate transfection using 2.0 μg of cDNA in pCDNA3 vector or 2.0 μg empty pCDNA3 vector as control, according to the manufacturer's protocol. Then the transfected cells were cultured at 37° C. in a humid incubator with 5% CO2 until they were ready for analysis. Gli2 cDNA was kindly provided by Dr. Fritz Aberger at University of Salzburg (Salzburg, Austria). Gli1 and Gli3 cDNA were kindly provided by Dr. Bert Vogelstein and Dr. Kenneth W. Kinzler at the Sidney Kimmel Comprehensive Cancer Center of the Johns Hopkins University (Baltimore, Md.). TAFIII31 cDNA was kindly provided by Dr. Gregory L. Verdine at Harvard University (Cambridge, Mass.).
As described herein, GLI3 seems to activate transcription of Gli1 and Gli2 genes. […] If so, then transfecting a GLI1 and/or GLI2 expression construct into a cell treated with a small molecule compound of the present invention, should lead to at least a partial rescue of the apoptotic effect mediated by the small molecule compound. Thus, to further examine the specificity of the small molecule compound FN1-5, as well as its inhibitory mechanisms, it was tested whether over-expressing GLI2 protein could attenuate the cell killing effect of FN1-5. In this experiment, the colon cancer cell line SW480 was transfected with either empty pCDNA3 vector or with a Gli2 cDNA expression construct. After selection, the transfected cells were re-plated in 6-well plates at same numbers, and then FN1-5 was added into medium at a final concentration of 50 μM.
To further examine the specificity of the small molecule compound FN1-8, as well as its inhibitory mechanisms, we tested whether over-expressing GLI2 protein could attenuate the cell killing effect of FN1-8. The transfection experiment was performed as described above. After 5 days, apoptosis analysis using flow cytometry was performed to quantify the experiment.

Compound: O=C(NCCc1ccc(O)cc1)C1C(c2ccccc2)=NN(c2ccccc2)C1c1ccccc1 (stereo not shown) [FN1-8, N-(2-(4-Hydroxyphenyl)ethyl)-1,3,5-triphenyl-4,5-dihydro-pyrazole-4-carboxyamide]
- tumor weight (NSCLC A549 tumor): decreased
- % of apoptotic cells (HT29 (colon cancer); HT29, 30 μM): 3.1%
- % of apoptotic cells (HT29 (colon cancer); HT29, 50 μM): 5.3%
- apoptosis induction (HT29 (colon cancer); HT29, flow cytometry): no apoptosis
- apoptotic cells ([1]; SW480 transfected with empty vector): 48.1%
- apoptotic cells ([1]; SW480 transfected with the Gli2 expression construct): 27.7%

Compound: O=C(NCCCCCO)C1C(c2ccccc2)=NN(c2ccccc2)C1c1ccccc1 (stereo not shown) [FN1-5, N-(5-Hydroxypentyl)-1,3,5-triphenyl-4,5-dihydro-pyrazole-4-carboxyamide]
- % of apoptotic cells (HT29 (colon cancer); HT29, 10 μM): 5.8%
- % of apoptotic cells (HT29 (colon cancer); HT29, 30 μM): 15.5%
- % of apoptotic cells (HT29 (colon cancer); HT29, 50 μM): 32.9%
- cell killing, Gli2-transfected versus empty vector cells ([1]; 50 μM): kill less cells transfected with Gli2 than those with empty vector
